Measured values reported in ChEMBL document CHEMBL1153895, “Discovery of 4,6-bis-anilino-1H-pyrrolo[2,3-d]pyrimidines: potent inhibitors of the IGF-1R receptor tyrosine kinase” (Bioorg Med Chem Lett, 2009).

Legend:
[1] = target: T1, Insulin-like growth factor 1 receptor (Homo sapiens, UniProt P08069); assay: Inhibition of GST-tagged human IGF1R expressed in Sf9 cells by Wallac Victor fluorometer
[2] = target: T1, Insulin-like growth factor 1 receptor; assay: Inhibition of human IGF1R phosphorylation expressed in HEK293 cells by DELFIA; format: cell-based
Aurora kinase B = Aurora kinase B (Homo sapiens, UniProt Q96GD4); assay: Inhibition of Aurora B
[3] = Clearance in rat at 2.0 mg/kg, iv; format: ADME, organism-based; parameters: dose 2 mg/kg, route intravenous; settings: in vivo
Rattus norvegicus [4] = assay: Dose normalized AUC in rat at 2.0 mg/kg, iv and 10.6 mg/kg, po; format: ADME, organism-based; settings: in vivo
Rattus norvegicus [5] = assay: Volume of distribution at steady state in rat at 2.0mg/kg, iv and 10.6 mg/kg, po; format: ADME, organism-based; parameters: dose 10.6 mg/kg, route oral; settings: in vivo
[6] = Cmax in rat at 2.0mg/kg, iv and 10.6 mg/kg, po; format: ADME, organism-based; parameters: dose 10.6 mg/kg, route oral; settings: in vivo
[7] = Bioavailability in rat at 2.0 mg/kg, iv and 10.6 mg/kg, po; format: ADME, organism-based; settings: in vivo
[8] = Clearance in rat at 4.2 mg/kg, iv; format: ADME, organism-based; parameters: dose 4.2 mg/kg, route intravenous; settings: in vivo
Rattus norvegicus [9] = assay: Dose normalized AUC in rat at 4.2 mg/kg, iv and 13.6 mg/kg, po; format: ADME, organism-based; settings: in vivo
Rattus norvegicus [10] = assay: Volume of distribution at steady state in rat at 4.2mg/kg, iv and 13.6 mg/kg, po; format: ADME, organism-based; parameters: dose 13.6 mg/kg, route oral; settings: in vivo
[11] = Cmax in rat at 4.2mg/kg, iv and 13.6 mg/kg, po; format: ADME, organism-based; parameters: dose 13.6 mg/kg, route oral; settings: in vivo
[12] = Bioavailability in rat at 4.2 mg/kg, iv and 13.6 mg/kg, po; format: ADME, organism-based; settings: in vivo
[13] = target: Mitogen-activated protein kinase 8 (Homo sapiens, UniProt P45983); assay: Inhibition of JNK1
[14] = target: ALK tyrosine kinase receptor (Homo sapiens, UniProt Q9UM73); assay: Inhibition of ALK
Insulin receptor = Insulin receptor (Homo sapiens, UniProt P06213); assay: Inhibition of human IR
Rattus norvegicus [15] = assay: Dose normalized AUC in rat at 2.1 mg/kg, iv and 9.2 mg/kg, po; format: ADME, organism-based; settings: in vivo
[16] = Volume of distribution at steady state in rat at 2.1 mg/kg, iv and 9.2 mg/kg, po; format: ADME, organism-based; settings: in vivo, read-out: Vdss
[17] = Cmax in rat at 2.1 mg/kg, iv and 9.2 mg/kg, po; format: ADME, organism-based; settings: in vivo
[18] = Clearance in rat at 2.3 mg/kg, iv; format: ADME, organism-based; parameters: dose 2.3 mg/kg, route intravenous; settings: in vivo
Rattus norvegicus [19] = assay: Dose normalized AUC in rat at 2.3 mg/kg, iv and 10.7 mg/kg, po; format: ADME, organism-based; settings: in vivo
Rattus norvegicus [20] = assay: Volume of distribution at steady state in rat at 2.3mg/kg, iv and 10.7 mg/kg, po; format: ADME, organism-based; parameters: dose 10.7 mg/kg, route oral; settings: in vivo
[21] = Cmax in rat at 2.3mg/kg, iv and 10.7 mg/kg, po; format: ADME, organism-based; parameters: dose 10.7 mg/kg, route oral; settings: in vivo
[22] = Bioavailability in rat at 2.3 mg/kg, iv and 10.7 mg/kg, po; format: ADME, organism-based; settings: in vivo
[23] = Clearance in rat at 1.7 mg/kg, iv; format: ADME, organism-based; parameters: dose 1.7 mg/kg, route intravenous; settings: in vivo
Rattus norvegicus [24] = assay: Dose normalized AUC in rat at 1.7 mg/kg, iv and 10.5 mg/kg, po; format: ADME, organism-based; settings: in vivo
[25] = Volume of distribution at steady state in rat at 1.7 mg/kg, iv and 10.5 mg/kg, po; format: ADME, organism-based; settings: in vivo, read-out: Vdss
[26] = Cmax in rat at 1.7 mg/kg, iv and 10.5 mg/kg, po; format: ADME, organism-based; settings: in vivo
[27] = Bioavailability in rat at 1.7 mg/kg, iv and 10.5 mg/kg, po; format: ADME, organism-based; settings: in vivo

T1 sequence (P08069 31-736 limits assumed): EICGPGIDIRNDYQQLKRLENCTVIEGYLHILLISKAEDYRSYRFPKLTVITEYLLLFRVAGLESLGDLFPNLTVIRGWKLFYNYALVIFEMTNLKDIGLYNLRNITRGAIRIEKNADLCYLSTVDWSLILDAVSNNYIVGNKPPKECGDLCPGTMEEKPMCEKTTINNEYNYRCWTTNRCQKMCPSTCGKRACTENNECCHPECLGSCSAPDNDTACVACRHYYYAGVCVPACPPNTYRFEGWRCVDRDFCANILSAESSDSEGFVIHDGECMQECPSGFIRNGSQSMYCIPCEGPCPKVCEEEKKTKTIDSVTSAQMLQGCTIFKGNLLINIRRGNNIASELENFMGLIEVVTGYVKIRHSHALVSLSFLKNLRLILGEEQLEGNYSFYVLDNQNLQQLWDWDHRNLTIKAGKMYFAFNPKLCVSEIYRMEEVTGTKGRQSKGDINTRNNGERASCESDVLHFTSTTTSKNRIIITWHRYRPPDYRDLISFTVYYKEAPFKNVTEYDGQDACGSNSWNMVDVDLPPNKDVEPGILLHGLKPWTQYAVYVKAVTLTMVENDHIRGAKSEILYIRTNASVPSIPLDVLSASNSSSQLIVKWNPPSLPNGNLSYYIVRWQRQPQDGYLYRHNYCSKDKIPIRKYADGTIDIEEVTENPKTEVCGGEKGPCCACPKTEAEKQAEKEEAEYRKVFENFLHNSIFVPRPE
T1 sequence (P08069 741-1367 limits assumed): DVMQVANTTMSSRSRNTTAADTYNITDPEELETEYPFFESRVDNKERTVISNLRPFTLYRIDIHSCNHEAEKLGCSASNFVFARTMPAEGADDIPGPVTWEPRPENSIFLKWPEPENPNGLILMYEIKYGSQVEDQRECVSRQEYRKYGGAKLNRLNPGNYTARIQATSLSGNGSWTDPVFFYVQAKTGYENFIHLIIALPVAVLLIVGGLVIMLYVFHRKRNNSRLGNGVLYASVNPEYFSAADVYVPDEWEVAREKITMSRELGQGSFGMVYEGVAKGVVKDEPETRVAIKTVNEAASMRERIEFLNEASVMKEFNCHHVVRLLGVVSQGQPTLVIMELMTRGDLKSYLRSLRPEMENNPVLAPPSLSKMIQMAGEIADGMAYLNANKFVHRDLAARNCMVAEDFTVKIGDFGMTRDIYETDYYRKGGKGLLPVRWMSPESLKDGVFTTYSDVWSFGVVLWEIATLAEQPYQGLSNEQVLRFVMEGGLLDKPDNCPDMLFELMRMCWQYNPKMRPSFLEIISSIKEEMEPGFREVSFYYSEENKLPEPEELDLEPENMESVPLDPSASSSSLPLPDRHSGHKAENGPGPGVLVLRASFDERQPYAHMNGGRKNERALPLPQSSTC
Aurora kinase B, sequence (Q96GD4 whole entry): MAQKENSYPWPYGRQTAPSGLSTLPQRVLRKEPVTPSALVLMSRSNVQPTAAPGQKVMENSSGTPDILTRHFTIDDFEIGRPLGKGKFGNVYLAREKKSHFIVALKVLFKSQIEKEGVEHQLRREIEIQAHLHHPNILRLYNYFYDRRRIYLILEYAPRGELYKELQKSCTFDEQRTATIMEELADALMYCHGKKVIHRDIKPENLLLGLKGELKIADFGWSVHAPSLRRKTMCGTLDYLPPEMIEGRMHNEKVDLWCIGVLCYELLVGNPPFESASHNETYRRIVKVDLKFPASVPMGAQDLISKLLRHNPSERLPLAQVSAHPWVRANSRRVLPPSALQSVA
Insulin receptor, sequence (P06213 28-758 limits assumed): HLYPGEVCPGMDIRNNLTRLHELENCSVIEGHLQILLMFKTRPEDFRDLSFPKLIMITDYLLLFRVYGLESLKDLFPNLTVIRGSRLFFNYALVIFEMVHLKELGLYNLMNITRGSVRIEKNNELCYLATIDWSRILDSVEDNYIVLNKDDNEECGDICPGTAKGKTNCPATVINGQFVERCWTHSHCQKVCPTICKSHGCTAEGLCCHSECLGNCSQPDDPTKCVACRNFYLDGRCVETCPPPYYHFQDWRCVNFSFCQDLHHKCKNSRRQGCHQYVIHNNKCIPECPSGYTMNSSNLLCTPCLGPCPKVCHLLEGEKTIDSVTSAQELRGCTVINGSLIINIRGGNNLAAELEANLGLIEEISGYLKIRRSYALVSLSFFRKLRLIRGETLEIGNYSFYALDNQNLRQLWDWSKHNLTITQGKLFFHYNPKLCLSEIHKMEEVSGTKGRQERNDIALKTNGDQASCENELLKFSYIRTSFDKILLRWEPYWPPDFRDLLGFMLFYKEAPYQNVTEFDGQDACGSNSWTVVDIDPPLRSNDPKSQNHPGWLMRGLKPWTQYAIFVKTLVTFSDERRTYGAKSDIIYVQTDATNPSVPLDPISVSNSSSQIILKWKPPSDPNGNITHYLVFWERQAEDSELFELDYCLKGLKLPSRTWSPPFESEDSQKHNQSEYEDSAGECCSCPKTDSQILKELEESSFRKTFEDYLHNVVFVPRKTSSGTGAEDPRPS
Insulin receptor, sequence (P06213 763-1382 limits assumed): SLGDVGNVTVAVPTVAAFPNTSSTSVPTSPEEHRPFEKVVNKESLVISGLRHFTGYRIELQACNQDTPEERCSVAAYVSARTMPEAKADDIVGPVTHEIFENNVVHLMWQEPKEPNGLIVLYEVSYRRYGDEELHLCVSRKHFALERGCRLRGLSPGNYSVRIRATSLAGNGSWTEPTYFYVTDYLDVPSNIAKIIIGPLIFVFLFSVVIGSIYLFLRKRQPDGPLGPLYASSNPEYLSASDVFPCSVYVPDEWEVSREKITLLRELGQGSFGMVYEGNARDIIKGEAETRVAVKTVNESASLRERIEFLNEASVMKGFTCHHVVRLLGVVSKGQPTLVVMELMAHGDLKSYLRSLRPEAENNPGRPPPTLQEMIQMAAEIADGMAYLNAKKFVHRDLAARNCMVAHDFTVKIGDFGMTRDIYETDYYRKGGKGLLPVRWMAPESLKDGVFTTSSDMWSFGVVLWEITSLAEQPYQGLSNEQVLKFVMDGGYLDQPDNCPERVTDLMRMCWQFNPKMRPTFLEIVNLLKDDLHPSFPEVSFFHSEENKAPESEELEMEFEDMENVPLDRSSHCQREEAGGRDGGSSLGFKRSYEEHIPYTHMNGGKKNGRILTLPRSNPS
ALK tyrosine kinase receptor, sequence (Q9UM73 whole entry): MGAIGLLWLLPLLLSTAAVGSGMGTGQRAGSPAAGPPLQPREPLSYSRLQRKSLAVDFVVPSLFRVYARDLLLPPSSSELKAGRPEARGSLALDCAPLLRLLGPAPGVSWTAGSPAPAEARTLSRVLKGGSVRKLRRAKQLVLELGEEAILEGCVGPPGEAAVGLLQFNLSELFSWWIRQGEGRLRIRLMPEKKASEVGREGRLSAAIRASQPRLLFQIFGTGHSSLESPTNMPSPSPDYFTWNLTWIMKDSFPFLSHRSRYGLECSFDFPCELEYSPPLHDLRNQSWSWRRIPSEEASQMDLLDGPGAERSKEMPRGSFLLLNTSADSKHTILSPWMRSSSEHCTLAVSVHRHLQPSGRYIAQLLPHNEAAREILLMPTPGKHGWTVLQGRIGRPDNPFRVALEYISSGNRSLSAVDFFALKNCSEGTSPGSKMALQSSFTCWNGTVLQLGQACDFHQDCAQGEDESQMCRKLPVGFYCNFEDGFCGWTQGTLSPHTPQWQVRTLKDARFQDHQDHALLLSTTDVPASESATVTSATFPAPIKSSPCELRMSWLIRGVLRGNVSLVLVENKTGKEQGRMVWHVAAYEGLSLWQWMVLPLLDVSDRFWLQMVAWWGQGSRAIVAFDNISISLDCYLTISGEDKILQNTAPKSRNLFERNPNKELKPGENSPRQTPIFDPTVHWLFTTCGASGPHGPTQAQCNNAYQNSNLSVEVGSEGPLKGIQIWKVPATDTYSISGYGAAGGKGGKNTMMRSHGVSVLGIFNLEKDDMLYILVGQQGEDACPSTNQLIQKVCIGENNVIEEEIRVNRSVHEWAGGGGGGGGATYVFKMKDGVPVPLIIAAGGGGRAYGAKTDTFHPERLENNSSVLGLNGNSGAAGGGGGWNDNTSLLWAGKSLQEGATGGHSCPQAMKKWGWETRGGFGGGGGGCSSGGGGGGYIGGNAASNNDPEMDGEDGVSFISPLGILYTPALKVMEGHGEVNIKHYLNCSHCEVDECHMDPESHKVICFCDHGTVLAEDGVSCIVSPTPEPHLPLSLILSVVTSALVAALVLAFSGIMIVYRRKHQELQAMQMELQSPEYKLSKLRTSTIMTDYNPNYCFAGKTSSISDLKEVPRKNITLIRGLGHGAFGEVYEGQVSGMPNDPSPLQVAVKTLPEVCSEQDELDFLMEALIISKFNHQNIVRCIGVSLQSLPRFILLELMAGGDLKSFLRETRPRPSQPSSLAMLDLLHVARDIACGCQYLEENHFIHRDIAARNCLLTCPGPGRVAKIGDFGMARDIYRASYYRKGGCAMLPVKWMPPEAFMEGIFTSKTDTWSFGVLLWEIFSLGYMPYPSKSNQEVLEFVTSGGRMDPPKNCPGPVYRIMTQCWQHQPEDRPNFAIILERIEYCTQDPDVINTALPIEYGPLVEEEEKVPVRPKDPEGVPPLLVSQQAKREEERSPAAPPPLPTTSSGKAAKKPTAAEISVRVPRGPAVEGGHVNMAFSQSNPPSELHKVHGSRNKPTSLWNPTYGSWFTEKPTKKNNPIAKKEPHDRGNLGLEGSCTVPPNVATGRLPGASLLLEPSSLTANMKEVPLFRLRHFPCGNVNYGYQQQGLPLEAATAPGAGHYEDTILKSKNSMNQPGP
Mitogen-activated protein kinase 8, sequence (P45983 whole entry): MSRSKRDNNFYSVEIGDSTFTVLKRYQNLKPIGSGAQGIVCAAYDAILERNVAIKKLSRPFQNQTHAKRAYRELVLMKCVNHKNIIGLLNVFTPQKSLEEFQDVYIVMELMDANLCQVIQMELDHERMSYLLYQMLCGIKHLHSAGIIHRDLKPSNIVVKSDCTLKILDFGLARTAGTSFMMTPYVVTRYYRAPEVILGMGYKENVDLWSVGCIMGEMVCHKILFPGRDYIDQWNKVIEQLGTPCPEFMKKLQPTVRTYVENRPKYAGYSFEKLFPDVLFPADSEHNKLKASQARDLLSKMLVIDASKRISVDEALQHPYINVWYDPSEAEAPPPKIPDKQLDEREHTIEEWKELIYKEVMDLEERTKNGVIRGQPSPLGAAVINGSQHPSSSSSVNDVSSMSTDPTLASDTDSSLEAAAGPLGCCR

For `CCCN1CCC=C(c2ccc(Nc3nc(Nc4ccccc4C(N)=O)c4cc[nH]c4n3)c(F)c2)C1`, the IC50 [1] was 1.6 nM, the IC50 [2] was 317 nM and the IC50 (Aurora kinase B) was 1600 nM.
`COc1cc(N2CCN(C(C)C)CC2)ccc1Nc1nc(Nc2ccc(F)cc2C(=O)NCCO)c2cc[nH]c2n1` gave an IC50 [1] of 5 nM and an IC50 [2] of 650 nM.
With `COc1cc(N2CCN(C(C)C)CC2)ccc1N(C)c1nc(Nc2cccc(F)c2C(N)=O)c2cc[nH]c2n1` the IC50 [1] was 50 nM.
With `CNC(=O)c1c(F)cccc1Nc1nc(Nc2ccc(N3CCN(C(C)C)CC3)cc2OC)nc2[nH]ccc12` the IC50 [1] was 5 nM, the IC50 [2] was 370 nM and the clearance [3] was 32 mL/min/kg. The AUC (Rattus norvegicus [4]) was 277 ng·h/mL/mg/kg, the Vdss (Rattus norvegicus [5]) was 22.3 L/kg and the Cmax [6] was 418 ng/mL. It also gave a bioavailability [7] of 83%.
Compound `COc1ccc(N2CCN(C(C)C)CC2)cc1Nc1nc(Nc2cccc(F)c2C(N)=O)c2cc[nH]c2n1` has an IC50 [1] of 4 nM and an IC50 [2] of 160 nM.
For `COc1cc(N2CCN(C(C)C)CC2)ccc1Nc1nc(Nc2cc(F)c(F)cc2C(N)=O)c2cc[nH]c2n1`, the IC50 [1] was 0.5 nM, the IC50 [2] was 53 nM and the clearance [8] was 64 mL/min/kg. It also gave an AUC (Rattus norvegicus [9]) of 114 ng·h/mL/mg/kg, a Vdss (Rattus norvegicus [10]) of 17 L/kg and a Cmax [11] of 152 ng/mL. It also gave a bioavailability [12] of 45%.
With `COc1cc(N2CCN(C(C)C)CC2)ccc1Nc1nc(Nc2ccc(F)c(F)c2C(N)=O)c2cc[nH]c2n1` the IC50 [2] was 213 nM.
In the case of `COc1c(Nc2nc(Nc3cccc(F)c3C(N)=O)c3cc[nH]c3n2)ccc(N2CCN(C(C)C)CC2)c1C`, the IC50 [1] is reported as 8 nM and the IC50 [2] is reported as 3700 nM.
In the case of `COc1cc(N2CCN(C(C)C)CC2)c(Cl)cc1Nc1nc(Nc2cccc(F)c2C(N)=O)c2cc[nH]c2n1`, the IC50 [1] is reported as 1.6 nM and the IC50 [2] is reported as 65 nM.
In the case of `CCCN1CCC=C(c2ccc(Nc3nc(Nc4ccccc4C(N)=O)c4cc[nH]c4n3)c(OC)c2)C1`, the IC50 [1] is reported as 0.6 nM, the IC50 [2] is reported as 104 nM and the IC50 (Aurora kinase B) is reported as greater than 10000 nM.
Compound `COCCNC(=O)c1cc(F)ccc1Nc1nc(Nc2ccc(N3CCN(C(C)C)CC3)cc2OC)nc2[nH]ccc12` has an IC50 [1] of 25 nM and an IC50 [2] of 760 nM.
For `CCCN1CCC=C(c2ccc(Nc3nc(Nc4ccccc4C(N)=O)c4cc[nH]c4n3)c(C)c2)C1` [GSK-994854A], the IC50 [1] was 5 nM, the IC50 [13] was 12 nM and the IC50 [14] was 1 nM. It also gave an IC50 (Insulin receptor) of 6.3 nM.
For `COc1cc(N2CCN(C(C)C)CC2)ccc1Nc1nc(Nc2cccc(F)c2C(N)=O)c2ccn(C)c2n1`, the IC50 [1] was 10000 nM.
With `COc1cc(N2CCOCC2)ccc1Nc1nc(Nc2cc(F)ccc2C(N)=O)c2cc[nH]c2n1` the IC50 [1] was 1.6 nM and the IC50 [2] was 68 nM.
In the case of `CCCN1CCC=C(c2ccc(Nc3nc(Nc4ccccc4C(N)=O)c4cc[nH]c4n3)c(C(F)(F)F)c2)C1`, the IC50 [1] is reported as 20 nM and the IC50 [2] is reported as greater than 10000 nM.
`CCCN1CCC=C(c2ccc(Nc3nc(Nc4cc(F)ccc4C(N)=O)c4cc[nH]c4n3)c(OC(C)C)c2)C1` showed an IC50 [1] of 3.2 nM and an IC50 [2] of 2240 nM.
`COc1cc(N2CCN(C(C)C)CC2)ccc1Nc1nc(Nc2cc(F)ccc2C(N)=O)c2cc[nH]c2n1` gave an IC50 [1] of 0.8 nM and an IC50 [2] of 130 nM.
For `COc1cc(N2CCN(C(C)C)CC2)ccc1Nc1nc(Nc2cccc(F)c2C(N)=O)c2cc[nH]c2n1`, the IC50 [2] was 109 nM, the AUC (Rattus norvegicus [15]) was 156 ng·h/mL/mg/kg and the Vd [16] was 18.5 L/kg. It also gave a Cmax [17] of 184 ng/mL.
In the case of `CCCN1CCCC(c2ccc(Nc3nc(Nc4cc(F)ccc4C(N)=O)c4cc[nH]c4n3)c(OC)c2)C1` (racemic) [GSK-1173862A], the IC50 [1] is reported as 0.4 nM and the IC50 [2] is reported as 60 nM.
In the case of `COc1cc(N2CCN(C(C)C)CC2)ccc1Nc1nc(Nc2ccc(F)cc2C(N)=O)c2cc[nH]c2n1` [GSK-1220512A], the IC50 [1] is reported as 0.8 nM and the IC50 [2] is reported as 60 nM.
`COc1c(Nc2nc(Nc3cccc(F)c3C(N)=O)c3cc[nH]c3n2)ccc(N2CCN(C(C)C)CC2)c1F` showed an IC50 [1] of 4 nM and an IC50 [2] of 574 nM.
Work on `CNC(=O)c1cc(F)ccc1Nc1nc(Nc2ccc(N3CCN(C(C)C)CC3)cc2OC)nc2[nH]ccc12` yielded an IC50 [1] of 3.2 nM and an IC50 [2] of 135 nM.
For `COc1cc(N2CCN(C(C)C)CC2)c(C)cc1Nc1nc(Nc2cccc(F)c2C(N)=O)c2cc[nH]c2n1`, the IC50 [1] was 2 nM and the IC50 [2] was 38 nM.
Work on `CCCN1CCC=C(c2ccc(Nc3nc(Nc4ccccc4C(N)=O)c4cc[nH]c4n3)cc2)C1` yielded an IC50 [1] of 1.6 nM and an IC50 (Aurora kinase B) of 5 nM.
`COc1cc(N2CCN(C(C)C)CC2)c(F)cc1Nc1nc(Nc2cccc(F)c2C(N)=O)c2cc[nH]c2n1` gave an IC50 [1] of 2 nM and an IC50 [2] of 190 nM.
Compound `COc1cc(N2CCN(C(C)C)CC2)ccc1Nc1nc(Nc2cc(F)cc(F)c2C(N)=O)c2cc[nH]c2n1` has an IC50 [2] of 90 nM, a clearance [18] of 46 mL/min/kg and an AUC (Rattus norvegicus [19]) of 117 ng·h/mL/mg/kg. The Vdss (Rattus norvegicus [20]) was 11 L/kg, the Cmax [21] was 200 ng/mL and the bioavailability [22] was 37%.
`CCCN1CCC(c2ccc(Nc3nc(Nc4cc(F)ccc4C(N)=O)c4cc[nH]c4n3)c(OC)c2)CC1` [GSK-1326255A] gave an IC50 [1] of 0.3 nM and an IC50 [2] of 47 nM.
Compound `COc1cc(C)c(N2CCN(C(C)C)CC2)cc1Nc1nc(Nc2cccc(F)c2C(N)=O)c2cc[nH]c2n1` has an IC50 [1] of 20 nM and an IC50 [2] of 270 nM.
With `COc1cc(N2CCN(C(C)C)CC2)ccc1Nc1nc(Nc2ccc(F)cc2C(=O)NC[C@@H](O)CO)c2cc[nH]c2n1` [GSK-1392956A] the IC50 [1] was 16 nM and the IC50 [2] was 5600 nM.
Work on `COc1cc(N2CCN(C(C)C)CC2)c(OC)cc1Nc1nc(Nc2cccc(F)c2C(N)=O)c2cc[nH]c2n1` yielded an IC50 [1] of 3.2 nM and an IC50 [2] of 90 nM.
In the case of `CCCN1CCN(c2ccc(Nc3nc(Nc4cc(F)ccc4C(N)=O)c4cc[nH]c4n3)c(OC)c2)CC1`, the IC50 [1] is reported as 1.6 nM and the IC50 [2] is reported as 122 nM.
`COc1cc(N2CCN(C(C)C)CC2)ccc1Nc1nc(Nc2ccc(F)cc2C(=O)NO)c2cc[nH]c2n1` gave an IC50 [1] of 6.3 nM and an IC50 [2] of 613 nM.
With `CCCN1CCC=C(c2ccc(Nc3nc(Nc4cc(F)ccc4C(N)=O)c4cc[nH]c4n3)c(OC)c2)C1` the IC50 [1] was 0.8 nM and the IC50 [2] was 82 nM.
`COc1cc(N2CCN(C(C)C)CC2)ccc1Nc1nc(Nc2ccccc2C(N)=O)c2cc[nH]c2n1` showed an IC50 [1] of 1 nM, an IC50 [2] of 71 nM and a clearance [23] of 142 mL/min/kg. The AUC (Rattus norvegicus [24]) was 35 ng·h/mL/mg/kg, the Vd [25] was 19.5 L/kg and the Cmax [26] was 69 ng/mL. For the same compound, the bioavailability [27] was 37%.
